In patent publication US10336762B2 (priority 2017, dated 2019):
Read-outs that look alike come from different tables or passages of the source.

How the values were obtained:
[1] = target: IRAK4 enzyme (Homo sapiens (Human), UniProt Q9NWZ3); assay: biochemical; assay type: biochemical; conditions: IRAK4 enzyme, 500 μM ATP
[2] = test system: TNFα; assay: cells; assay type: cell-based, human; conditions: Homo sapiens, Monocyte, LPS-stimulated human monocytes, read-out: EC50 TNF
Description: IRAK4 Monocyte TNFα Cell Based Assay Procedure:
The cell suspension was then plated at a density of 5,000 cells/well onto black 384 well Greiner clear bottom plates. Plates were pre-spotted with test compounds and serially diluted in DMSO where 200 nL/well were delivered using the Echo 550 acoustic liquid dispenser (Labcyte®) for a final DMSO concentration of 0.5%. Plated cells were treated with compound for 1 hour at 37° C. Cells were then stimulated with 50 pg/ml of LPS (Sigma) excluding outside columns of plate used for unstimulated cell control wells. Cells were incubated for an additional 4 hours at 37° C. Cells were then spun out of the media and 5 μl of sample were taken and analyzed for total TNFα content using the TR-FRET Human TNFα detection system (CisBio). This system utilizes two labeled antibodies (cryptate and XL665) that bind to two different epitopes of the TNFα molecule and produce FRET signal proportional to the concentration of TNFα in the sample. Detection antibodies are mixed 50:50 and 5 μL were dispensed into each well. Plates were covered with clear seals and incubated at room temp overnight. […] Percent of control was calculated as follows: % Control=100×(RatioSample−Ratio0% stimulation)/(Ratio100% Stimulation−Ratio0% Stimulation) where unstimulated cells (0% stimulation) were the negative control and stimulated cells (100% stimulation) were used as the positive control.

Chain of IRAK4 enzyme (Q9NWZ3 whole entry): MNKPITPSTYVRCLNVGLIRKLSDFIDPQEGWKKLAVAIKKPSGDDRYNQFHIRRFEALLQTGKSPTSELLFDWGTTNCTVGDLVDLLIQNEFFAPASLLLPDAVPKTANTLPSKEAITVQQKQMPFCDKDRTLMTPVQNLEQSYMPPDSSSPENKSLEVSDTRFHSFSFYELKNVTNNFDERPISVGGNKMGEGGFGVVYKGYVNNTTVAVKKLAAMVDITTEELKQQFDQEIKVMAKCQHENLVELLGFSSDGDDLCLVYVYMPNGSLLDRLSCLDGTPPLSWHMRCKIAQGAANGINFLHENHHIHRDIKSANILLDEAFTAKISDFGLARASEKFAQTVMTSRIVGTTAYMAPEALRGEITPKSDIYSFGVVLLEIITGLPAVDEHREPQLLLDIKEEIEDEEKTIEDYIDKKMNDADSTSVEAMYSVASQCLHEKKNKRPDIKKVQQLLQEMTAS

For `N#Cc1cnn2c(-c3cc(NC45CCC(O)(CC4)CC5)c(C(=O)NCCC(=O)N4CC(F)(F)C4)cn3)ccc2c1` [Example 805, 6-(3-cyanopyrrolo[1,2-b]pyridazin-7-yl)-N-(3-(3,3-difluoroazetidin-1-yl)-3-oxopropyl)-4-((4-hydroxybicyclo[2.2.2]octan-1-yl)amino) nicotinamide], the IC50 ([1]; TR-FRET) was under 1 nM and the EC50 ([2]; TNFα by TR-FRET) was 129 nM.
With `CC(C)Nc1cc(-c2ccc3cc(C#N)cnn23)ncc1C(=O)Nc1cncc(N)c1` [Example 490] the IC50 ([1]; TR-FRET (HTRF)) was 7 nM and the EC50 ([2]; TNFα content) was 220 nM.
`COC(C)(C)CCNC(=O)c1cnc(-c2ccc3cc(C#N)cnn23)cc1NC(C)C` [Example 87, 6-(3-cyanopyrrolo[1,2-b]pyridazin-7-yl)-4-(isopropylamino)-N-(3-methoxy-3-methylbutyl)nicotinamide] showed an IC50 ([1]; TR-FRET) of 1 nM and an EC50 ([2]; TNFα content) of 160 nM.
`COC[C@@H]1CCN1c1ccc(Nc2cc(-c3ccc4cc(C#N)cnn34)ncc2C(=O)NC[C@@H](F)C(C)(C)O)cn1` [Example 915, 6-(3-cyanopyrrolo[1,2-b]pyridazin-7-yl)-N-((R)-2-fluoro-3-hydroxy-3-methylbutyl)-4-((6-((S)-2-(methoxymethyl)azetidin-1-yl)pyridin-3-yl)amino) nicotinamide] gave an IC50 ([1]; TR-FRET) of 1 nM and an EC50 ([2]; TNFα by TR-FRET) of 28 nM.
With `CC1(C)C(=O)Nc2cc(Nc3cc(-c4ccc5cc(C#N)cnn45)ncc3C(=O)NC[C@@H](F)C(C)(C)O)ccc21` [Example 565, (R)-6-(3-cyanopyrrolo[1,2-b]pyridazin-7-yl)-4-((3,3-dimethyl-2-oxoindolin-6-yl)amino)-N-(2-fluoro-3-hydroxy-3-methylbutyl) nicotinamide] the IC50 ([1]; TR-FRET (HTRF)) was under 1 nM and the EC50 ([2]; TNFα content) was 23 nM.
With `CC(C)(O)[C@H](F)CNC(=O)c1cnc(-c2ccc3cc(C#N)cnn23)cc1Nc1ccc(C#N)cn1` [Example 413, (R)-4-((5-cyanopyridin-2-yl)amino)-6-(3-cyano-pyrrolo[1,2-b]pyridazin-7-yl)-N-(2-fluoro-3-hydroxy-3-methylbutyl) nicotinamide] the IC50 ([1]; TR-FRET (HTRF)) was under 1 nM and the EC50 ([2]; TNFα content) was 98 nM.
In the case of `COC(=O)NC[C@H]1C[C@H](Nc2cc(-c3ccc4cc(C#N)cnn34)ncc2C(=O)NCCC(C)(C)NC(=O)OC(C)(C)C)C1` [Example 816, methyl (((1r,3r)-3-((5-((3-((tert-butoxy-carbonyl)amino)-3-methylbutyl)carbamoyl)-2-(3-cyanopyrrolo[1,2-b]pyridazin-7-yl)pyridin-4-yl)amino)cyclobutyl)methyl)carbamate], the IC50 ([1]; TR-FRET) is reported as under 1 nM and the EC50 ([2]; TNFα by TR-FRET) is reported as 41 nM.
With `COc1cncc(Nc2cc(-c3ccc4cc(C#N)cnn34)ncc2C(=O)NC[C@@H](F)C(C)(C)O)n1` [Example 842, (R)-6-(3-cyanopyrrolo[1,2-b]pyridazin-7-yl)-N-(2-fluoro-3-hydroxy-3-methylbutyl)-4-((6-methoxypyrazin-2-yl)amino)nicotinamide] the IC50 ([1]; TR-FRET) was under 1 nM and the EC50 ([2]; TNFα by TR-FRET) was 42 nM.
`CN(C)C(=O)O[C@H]1CC[C@@H](Nc2cc(-c3ccc4cc(C#N)cnn34)ncc2C(=O)NC[C@@H](F)C(C)(C)O)CC1` [Example 167, (1S,4s)-4-((2-(3-cyano-pyrrolo[1,2-b]pyridazin-7-yl)-5-(((R)-2-fluoro-3-hydroxy-3-methylbutyl)carbamoyl)pyridin-4-yl)amino)cyclohexyl dimethylcarbamate] showed an IC50 ([1]; TR-FRET) of 1000 nM and an EC50 ([2]; TNFα content) of over 10000 nM.
`COC(=O)NC12CC(Nc3cc(-c4ccc5cc(C#N)cnn45)ncc3C(=O)NCC#N)(C1)C2` [Example 487, methyl (3-((5-((cyanomethyl)carbamoyl)-2-(3-cyanopyrrolo[1,2-b]pyridazin-7-yl)pyridin-4-yl)amino)bicyclo[1.1.1]pentan-1-yl)carbamate] was tested, and the IC50 ([1]; TR-FRET (HTRF)) was under 1 nM and the EC50 ([2]; TNFα content) was 51 nM.
Work on `CC(=O)N1Cc2ccc(Nc3cc(-c4ccc5cc(C#N)cnn45)ncc3C(=O)NC[C@@H](F)C(C)(C)O)cc2C1` [Example 197, (R)-4-((2-acetylisoindolin-5-yl)amino)-6-(3-cyanopyrrolo[1,2-b]pyridazin-7-yl)-N-(2-fluoro-3-hydroxy-3-methylbutyl)nicotinamide] yielded an IC50 ([1]; TR-FRET) of 1 nM and an EC50 ([2]; TNFα content) of 42 nM.
`CC(C)(O)[C@H](F)CNC(=O)c1cnc(-c2ccc3cc(C#N)cnn23)cc1Nc1ccc(-n2ncnn2)cc1` [Example 176, (R)-4-((4-(2H-tetrazol-2-yl)phenyl)amino)-6-(3-cyanopyrrolo[1,2-b]pyridazin-7-yl)-N-(2-fluoro-3-hydroxy-3-methylbutyl)nicotinamide] gave an IC50 ([1]; TR-FRET) of 1 nM and an EC50 ([2]; TNFα content) of over 10000 nM.
`CC(C)C(=O)NCc1ccc(Nc2cc(-c3ccc4cc(C#N)cnn34)ncc2C(=O)NC[C@@H](F)C(C)(C)O)cc1` [Example 203, (R)-6-(3-cyanopyrrolo[1,2-b]pyridazin-7-yl)-N-(2-fluoro-3-hydroxy-3-methylbutyl)-4-((4-(isobutyramidomethyl)phenyl)amino) nicotinamide] showed an IC50 ([1]; TR-FRET) of under 1 nM and an EC50 ([2]; TNFα content) of 44 nM.
Work on `CN(C)C(=O)O[C@H]1C[C@H](Nc2cc(-c3ccc4cc(C#N)cnn34)ncc2C(=O)NC[C@@H](F)C(C)(C)O)C1` [Example 161, (1R,3r)-3-((2-(3-cyano-pyrrolo[1,2-b]pyridazin-7-yl)-5-(((R)-2-fluoro-3-hydroxy-3-methylbutyl)carbamoyl)pyridin-4-yl)amino)cyclobutyl dimethylcarbamate] yielded an IC50 ([1]; TR-FRET) of 1000 nM and an EC50 ([2]; TNFα content) of over 10000 nM.
`CC(C)(O)[C@H](F)CNC(=O)c1cnc(-c2ccc3cc(C#N)cnn23)cc1Nc1ccc(-n2nccn2)nc1` [Example 778, (R)-4-((6-(2H-1,2,3-triazol-2-yl)pyridin-3-yl)amino)-6-(3-cyanopyrrolo[1,2-b]pyridazin-7-yl)-N-(2-fluoro-3-hydroxy-3-methyl-butyl)nicotinamide] was tested, and the IC50 ([1]; TR-FRET (HTRF)) was under 1 nM and the EC50 ([2]; TNFα content) was 51 nM.
`CC(C)(O)[C@H](F)CNC(=O)c1cnc(-c2ccc3cc(C#N)cnn23)cc1N[C@H]1C[C@H](Cn2cc(C3CC3)nn2)C1` [Example 704, 6-(3-cyanopyrrolo[1,2-b]pyridazin-7-yl)-4-(((1r,3R)-3-((4-cyclopropyl-1H-1,2,3-triazol-1-yl)methyl)cyclobutyl)amino)-N—((R)-2-fluoro-3-hydroxy-3-methylbutyl)nicotinamide] showed an IC50 ([1]; TR-FRET (HTRF)) of 1 nM and an EC50 ([2]; TNFα content) of 69 nM.
For `N#Cc1cnn2c(-c3cc(NC45CCC(O)(CC4)CC5)c(C(=O)NCC(=O)N4CC(F)C4)cn3)ccc2c1` [Example 787, 6-(3-cyanopyrrolo[1,2-b]pyridazin-7-yl)-N-(2-(3-fluoroazetidin-1-yl)-2-oxoethyl)-4-((4-hydroxybicyclo[2.2.2]octan-1-yl)amino) nicotinamide], the IC50 ([1]; TR-FRET (HTRF)) was under 1 nM and the EC50 ([2]; TNFα content) was 79 nM.
Compound `CC(C)(O)[C@H](F)CNC(=O)c1cnc(-c2ccc3cc(C#N)cnn23)cc1N` [Example 11, (R)-4-amino-6-(3-cyanopyrrolo[1,2-b]pyridazin-7-yl)-N-(2-fluoro-3-hydroxy-3-methylbutyl)nicotinamide] has an IC50 ([1]; TR-FRET) of 7 nM and an EC50 ([2]; TNFα content) of 1040 nM.
Work on `CC(C)Nc1cc(-c2ccc3cc(C#N)cnn23)ncc1C(=O)N[C@H]1CCC[C@H](O)C1` [Example 191, 6-(3-cyanopyrrolo[1,2-b]pyridazin-7-yl)-N-((1S,3S)-3-hydroxycyclohexyl)-4-(isopropylamino) nicotinamide] yielded an IC50 ([1]; TR-FRET) of 4 nM and an EC50 ([2]; TNFα content) of 128 nM.
`CC(C)(O)[C@H](F)CNC(=O)c1cnc(-c2ccc3cc(C#N)cnn23)cc1N[C@H]1CC[C@@H](N2CCC(F)(F)C2)CC1` [Example 724, 6-(3-cyanopyrrolo[1,2-b]pyridazin-7-yl)-4-(((1s,4S)-4-(3,3-difluoropyrrolidin-1-yl)cyclohexyl)amino)-N-((R)-2-fluoro-3-hydroxy-3-methylbutyl)nicotinamide] was tested, and the IC50 ([1]; TR-FRET (HTRF)) was under 1 nM and the EC50 ([2]; TNFα content) was 59 nM.
`CC(C)Nc1cc(-c2ccc3cc(C#N)cnn23)ncc1C(=O)N[C@H]1CCOC1` [Example 36, (S)-6-(3-cyanopyrrolo[1,2-b]pyridazin-7-yl)-4-(isopropylamino)-N-(tetrahydrofuran-3-yl) nicotinamide] showed an IC50 ([1]; TR-FRET) of 15 nM and an EC50 ([2]; TNFα content) of 221 nM.
`CC(C)(O)[C@H](F)CNC(=O)c1cnc(-c2ccc3cc(C#N)cnn23)cc1N[C@H]1CCC[C@H]1O` [Example 261, 6-(3-cyanopyrrolo[1,2-b]pyridazin-7-yl)-N-((R)-2-fluoro-3-hydroxy-3-methylbutyl)-4-(((1S,2R)-2-hydroxycyclopentyl)amino)nicotinamide] was tested, and the IC50 ([1]; TR-FRET) was under 1 nM and the EC50 ([2]; TNFα content) was 41 nM.
With `CN1CCN(C(=O)NC[C@H]2C[C@H](Nc3cc(-c4ccc5cc(C#N)cnn45)ncc3C(=O)NC[C@@H](F)C(C)(C)O)C2)CC1` [Example 793, N-(((1R,3r)-3-((2-(3-cyanopyrrolo[1,2-b]pyridazin-7-yl)-5-(((R)-2-fluoro-3-hydroxy-3-methylbutyl)carbamoyl)pyridin-4-yl)amino)cyclobutyl)methyl)-4-methylpiperazine-1-carboxamide] the IC50 ([1]; TR-FRET (HTRF)) was 3 nM and the EC50 ([2]; TNFα content) was 598 nM.
With `CC(C)(O)[C@H](F)CNC(=O)c1cnc(-c2ccc3cc(C#N)cnn23)cc1N[C@H]1CCC[C@@H](N)C1` [Example 533, 4-(((1S,3R)-3-aminocyclohexyl)amino)-6-(3-cyanopyrrolo[1,2-b]pyridazin-7-yl)-N-((R)-2-fluoro-3-hydroxy-3-methylbutyl)nicotinamide] the IC50 ([1]; TR-FRET (HTRF)) was under 1 nM and the EC50 ([2]; TNFα content) was 70 nM.
`COC(=O)N1CC[C@H](CNc2cc(-c3ccc4cc(C#N)cnn34)ncc2C(=O)NC[C@@H](F)C(C)(C)O)C1` [Example 900, (R)-methyl 3-(((2-(3-cyanopyrrolo[1,2-b]pyridazin-7-yl)-5-(((R)-2-fluoro-3-hydroxy-3-methylbutyl)carbamoyl)pyridin-4-yl)amino)methyl) pyrrolidine-1-carboxylate] showed an IC50 ([1]; TR-FRET) of 2 nM and an EC50 ([2]; TNFα by TR-FRET) of 134 nM.
Compound `CC(C)(O)[C@H](F)CNC(=O)c1cnc(-c2ccc3cc(C#N)cnn23)cc1Nc1cn[nH]c1` [Example 70, (R)-4-((1H-pyrazol-4-yl)amino)-6-(3-cyano-pyrrolo[1,2-b]pyridazin-7-yl)-N-(2-fluoro-3-hydroxy-3-methylbutyl)nicotinamide] has an IC50 ([1]; TR-FRET) of under 1 nM and an EC50 ([2]; TNFα content) of 47 nM.
